Data: US20080009418A1, “Selective Inhibitors” (Alchemia LTD., priority 2004, published 2008)

Tests used:
Conditions in all cases: compound at 10 μM
Human neurokinin (NK1) = molecular target: T1, Human neurokinin (NK1) (Homo sapiens, UniProt P25103); assay: Radioligand binding, human neurokinin NK1 membranes, filtration, [125I]-Substance P
T1 construct: purchased Perkin Elmer Biosignal
In short: (§1)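 Percent inhibition of radioligand binding measured on recombinant human membranes: NK1 with [125I]-Substance P, KOP with [3H]-Diprenorphine. Incubation 1 h at room temperature, then harvest onto 0.3% PEI-soaked filters, cold Tris-HCl pH 7.4 washes and scintillation counting; non-specific binding from reference ligand wells.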

Human opioid (ORL1) = molecular target: T2, Human opioid (ORL1) (Homo sapiens, UniProt P41146); assay: Radioligand binding, human opioid ORL1 membranes, FlashPlate, [125I]-Nociceptin
T2 construct: purchased Perkin Elmer Biosignal
T2 sequence (P41146 whole entry): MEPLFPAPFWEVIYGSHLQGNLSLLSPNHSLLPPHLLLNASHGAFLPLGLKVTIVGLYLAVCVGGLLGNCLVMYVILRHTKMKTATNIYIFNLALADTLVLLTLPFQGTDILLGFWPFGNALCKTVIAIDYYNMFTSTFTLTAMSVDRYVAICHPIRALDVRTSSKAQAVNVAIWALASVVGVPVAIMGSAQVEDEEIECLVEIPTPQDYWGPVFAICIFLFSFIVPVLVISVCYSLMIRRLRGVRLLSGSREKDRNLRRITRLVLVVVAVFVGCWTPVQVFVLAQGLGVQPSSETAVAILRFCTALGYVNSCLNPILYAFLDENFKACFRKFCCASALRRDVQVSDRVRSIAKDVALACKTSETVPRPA
In short: (§2)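 Cloned human receptor membranes were coated onto FlashPlate wells and incubated with radioligand and compound (added from a 0.5 mM DMSO daughter plate) for 1 hour at room temperature in the dark. Scintillation counting gave percent inhibition, with DMSO defining total and reference ligand defining non-specific binding.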

Human κ-Opioid (KOP) = molecular target: T3, Human κ-Opioid (KOP) (Homo sapiens, UniProt P41145); assay: Radioligand binding, human κ-opioid (KOP) membranes, filtration, [3H]-Diprenorphine
T3 construct: purchased Perkin Elmer Biosignal
T3 sequence (P41145 whole entry): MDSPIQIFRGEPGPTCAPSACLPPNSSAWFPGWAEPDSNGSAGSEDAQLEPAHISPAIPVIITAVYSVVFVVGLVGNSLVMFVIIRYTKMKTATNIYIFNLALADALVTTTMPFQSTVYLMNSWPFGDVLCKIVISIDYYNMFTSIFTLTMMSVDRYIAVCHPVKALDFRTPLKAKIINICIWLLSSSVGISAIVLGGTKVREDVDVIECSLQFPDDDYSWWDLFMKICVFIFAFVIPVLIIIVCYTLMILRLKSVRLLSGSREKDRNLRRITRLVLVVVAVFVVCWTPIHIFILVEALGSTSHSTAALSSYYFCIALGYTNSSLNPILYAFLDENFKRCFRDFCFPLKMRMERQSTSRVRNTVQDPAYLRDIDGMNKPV
In short: as §1

Human μ-opioid (MOP) = molecular target: T4, Human μ-opioid (MOP) (Homo sapiens, UniProt P35372); assay: Radioligand binding, human μ-opioid (MOP) membranes, FlashPlate, [3H]-Naloxone
T4 construct: purchased Perkin Elmer Biosignal
T4 sequence (P35372 whole entry): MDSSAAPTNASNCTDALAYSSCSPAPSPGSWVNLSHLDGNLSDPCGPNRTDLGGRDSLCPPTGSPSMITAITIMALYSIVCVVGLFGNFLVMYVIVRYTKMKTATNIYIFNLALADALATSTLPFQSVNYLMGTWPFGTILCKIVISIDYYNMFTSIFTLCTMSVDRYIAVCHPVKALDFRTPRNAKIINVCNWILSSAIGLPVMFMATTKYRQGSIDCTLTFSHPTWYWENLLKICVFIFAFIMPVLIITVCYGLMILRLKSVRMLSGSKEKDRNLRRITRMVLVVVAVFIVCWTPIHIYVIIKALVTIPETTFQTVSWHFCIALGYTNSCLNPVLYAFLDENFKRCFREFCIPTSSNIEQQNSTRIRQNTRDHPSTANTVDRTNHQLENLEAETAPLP
In short: as §2

Human melanocortin (MC5) = molecular target: T5, Human melanocortin (MC5) (Homo sapiens, UniProt P33032); assay: Radioligand binding, human melanocortin MC5 membranes, FlashPlate, [125I]-NDP-αMSH
T5 construct: purchased Perkin Elmer Biosignal
T5 sequence (P33032 whole entry): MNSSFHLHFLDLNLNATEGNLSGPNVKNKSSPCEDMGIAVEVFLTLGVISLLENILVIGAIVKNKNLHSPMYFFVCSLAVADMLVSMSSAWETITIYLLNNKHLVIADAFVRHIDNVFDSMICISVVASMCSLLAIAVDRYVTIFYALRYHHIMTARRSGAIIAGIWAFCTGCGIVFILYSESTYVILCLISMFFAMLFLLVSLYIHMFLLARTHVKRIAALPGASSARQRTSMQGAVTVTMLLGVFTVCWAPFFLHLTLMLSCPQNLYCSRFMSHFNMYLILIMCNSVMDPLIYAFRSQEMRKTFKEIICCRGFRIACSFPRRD
In short: as §2

Human Melanocortin (MC4) = molecular target: T6, Human Melanocortin (MC4) (Homo sapiens, UniProt P32245); assay: Radioligand binding, human melanocortin MC4 membranes, FlashPlate, [125I]-NDP-αMSH
T6 construct: purchased Perkin Elmer Biosignal
T6 sequence (P32245 whole entry): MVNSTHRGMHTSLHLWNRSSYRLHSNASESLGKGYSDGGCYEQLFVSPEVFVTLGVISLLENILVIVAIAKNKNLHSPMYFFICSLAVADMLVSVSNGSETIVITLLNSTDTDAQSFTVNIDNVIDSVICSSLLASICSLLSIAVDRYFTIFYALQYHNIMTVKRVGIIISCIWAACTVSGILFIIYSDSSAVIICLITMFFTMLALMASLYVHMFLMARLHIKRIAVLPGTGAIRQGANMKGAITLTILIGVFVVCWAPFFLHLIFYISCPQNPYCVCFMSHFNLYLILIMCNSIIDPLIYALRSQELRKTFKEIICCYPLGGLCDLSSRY
In short: as §2

[1] = molecular target: T7, Human melanin-concentrating hormone (MCH1) (Homo sapiens, UniProt Q99705); assay: Radioligand binding, human melanin-concentrating hormone MCH1 membranes, FlashPlate, [125I]-S36057
T7 construct: purchased Perkin Elmer Biosignal
T7 sequence (Q99705 whole entry): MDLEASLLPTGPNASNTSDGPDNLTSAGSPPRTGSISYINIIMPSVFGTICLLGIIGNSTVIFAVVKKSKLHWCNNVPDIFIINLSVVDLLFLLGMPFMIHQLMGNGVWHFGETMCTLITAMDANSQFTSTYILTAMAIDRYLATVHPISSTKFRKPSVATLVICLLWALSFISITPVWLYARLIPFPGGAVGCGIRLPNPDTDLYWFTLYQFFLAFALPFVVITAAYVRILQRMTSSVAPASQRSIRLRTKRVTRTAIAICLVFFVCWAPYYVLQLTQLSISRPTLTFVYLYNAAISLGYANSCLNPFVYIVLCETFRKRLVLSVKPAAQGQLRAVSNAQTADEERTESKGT
In short: as §2

Human Melanocortin (MC3) = molecular target: T8, Human Melanocortin (MC3) (Homo sapiens, UniProt P41968); assay: Radioligand binding, human melanocortin MC3 membranes, FlashPlate, [125I]-NDP-αMSH
T8 construct: purchased Perkin Elmer Biosignal
T8 sequence (P41968 whole entry): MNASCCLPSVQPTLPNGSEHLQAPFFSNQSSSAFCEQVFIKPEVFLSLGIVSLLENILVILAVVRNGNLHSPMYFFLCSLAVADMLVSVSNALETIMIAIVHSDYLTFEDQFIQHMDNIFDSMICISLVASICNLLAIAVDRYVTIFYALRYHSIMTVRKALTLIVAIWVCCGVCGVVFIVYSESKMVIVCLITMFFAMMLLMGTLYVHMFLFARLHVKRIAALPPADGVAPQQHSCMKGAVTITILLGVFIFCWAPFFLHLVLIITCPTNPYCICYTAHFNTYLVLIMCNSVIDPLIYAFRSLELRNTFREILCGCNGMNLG
In short: as §2

[2] = molecular target: T9, Human neuropeptide Y (NPY-Y1) (Homo sapiens, UniProt P25929); assay: Radioligand binding, human neuropeptide Y NPY-Y1 membranes, FlashPlate, [125I]-PYY
T9 construct: purchased Perkin Elmer Biosignal
T9 sequence (P25929 1-384): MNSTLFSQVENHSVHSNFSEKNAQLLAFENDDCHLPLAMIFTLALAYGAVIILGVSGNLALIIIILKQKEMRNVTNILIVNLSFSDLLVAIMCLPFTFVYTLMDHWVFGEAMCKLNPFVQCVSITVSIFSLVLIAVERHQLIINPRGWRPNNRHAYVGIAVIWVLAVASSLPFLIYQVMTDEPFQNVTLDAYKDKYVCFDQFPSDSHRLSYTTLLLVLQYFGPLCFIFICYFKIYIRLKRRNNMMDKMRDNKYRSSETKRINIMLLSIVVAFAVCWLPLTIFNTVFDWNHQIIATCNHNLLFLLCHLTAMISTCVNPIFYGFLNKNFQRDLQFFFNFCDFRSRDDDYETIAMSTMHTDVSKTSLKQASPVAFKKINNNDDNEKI
In short: as §2

Mouse urotensin (mUR2) = molecular target: T10, Mouse urotensin (mUR2) (Mus musculus, UniProt Q8VIH9); assay: Radioligand binding, mouse urotensin mUR2 membranes, FlashPlate, [125I]-Urotensin II
T10 construct: purchased Perkin Elmer Biosignal
T10 sequence (Q8VIH9 1-385): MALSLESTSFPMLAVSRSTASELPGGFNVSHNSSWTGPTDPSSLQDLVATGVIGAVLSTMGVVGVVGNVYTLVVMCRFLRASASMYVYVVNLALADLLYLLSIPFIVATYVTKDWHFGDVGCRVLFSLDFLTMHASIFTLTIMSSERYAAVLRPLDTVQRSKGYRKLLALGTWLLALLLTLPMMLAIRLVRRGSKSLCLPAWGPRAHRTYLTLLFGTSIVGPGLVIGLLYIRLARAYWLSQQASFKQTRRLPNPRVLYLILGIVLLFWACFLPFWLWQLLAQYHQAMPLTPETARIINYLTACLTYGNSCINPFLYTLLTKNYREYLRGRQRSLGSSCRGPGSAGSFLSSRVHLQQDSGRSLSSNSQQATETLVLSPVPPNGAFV
In short: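 Cloned mouse urotensin (mUR2) receptor membranes from Perkin Elmer Biosignal were immobilized in FlashPlate microplates using a proprietary coating. Each well got 19.5 μl buffer, then 0.5 μl of DMSO, reference ligand, or compound. Adding 5 μl of [125I]-Urotensin II, diluted to 5× final concentration in binding buffer, started binding. Plates were sealed with TopSeal-A and incubated 1 hour at room temperature in the dark. Wells were counted for 30 seconds each on a TopCount after a 60-second delay, and percentage inhibition was calculated.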

Human δ-opioid (DOP) = molecular target: T11, Human δ-opioid (DOP) (Homo sapiens, UniProt P41143); assay: Radioligand binding, human δ-opioid (DOP) membranes, FlashPlate, [3H]-Bremazocine
T11 construct: purchased Perkin Elmer Biosignal
T11 sequence (P41143 whole entry): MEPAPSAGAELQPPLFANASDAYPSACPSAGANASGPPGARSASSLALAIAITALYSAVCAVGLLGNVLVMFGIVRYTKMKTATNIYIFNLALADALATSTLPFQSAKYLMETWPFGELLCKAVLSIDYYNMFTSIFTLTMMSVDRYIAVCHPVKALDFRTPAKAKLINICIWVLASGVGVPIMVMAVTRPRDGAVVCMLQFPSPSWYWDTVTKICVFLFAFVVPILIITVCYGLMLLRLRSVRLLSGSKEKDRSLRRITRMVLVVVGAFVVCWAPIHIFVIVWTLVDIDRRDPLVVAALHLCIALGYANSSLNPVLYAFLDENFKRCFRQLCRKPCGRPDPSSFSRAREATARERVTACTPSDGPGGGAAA
In short: as §2

T1 sequence (P25103 whole entry): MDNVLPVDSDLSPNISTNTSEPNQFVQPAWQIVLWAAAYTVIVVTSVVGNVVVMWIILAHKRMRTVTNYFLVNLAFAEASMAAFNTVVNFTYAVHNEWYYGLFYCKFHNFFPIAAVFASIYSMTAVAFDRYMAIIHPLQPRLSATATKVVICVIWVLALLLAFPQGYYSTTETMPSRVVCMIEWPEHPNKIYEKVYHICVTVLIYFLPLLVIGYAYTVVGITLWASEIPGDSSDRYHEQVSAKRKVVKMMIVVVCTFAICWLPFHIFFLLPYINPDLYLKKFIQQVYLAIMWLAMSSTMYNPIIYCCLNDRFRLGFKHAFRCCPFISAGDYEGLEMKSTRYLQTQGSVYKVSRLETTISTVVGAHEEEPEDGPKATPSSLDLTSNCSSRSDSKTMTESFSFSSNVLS

CO[C@H]1[C@H](O)[C@@H](COCc2cccc(O)c2)OC(OCCc2ccccc2)[C@@H]1NC(=O)CNC(=N)N (stereo partly shown) [compound 158]
A8 radioligand binding, percentage inhibition (Human neurokinin (NK1); [125I]-Substance P): + (“+” indicates greater than 50% inhibition at 10 μM) | A10 radioligand binding, percentage inhibition (Human opioid (ORL1); [125I]-Nociceptin): − (“−” indicates less than 50% inhibition at 10 μM) | A2 radioligand binding, percentage inhibition (Human κ-Opioid (KOP); [3H]-Diprenorphine): − (“−” indicates less than 50% inhibition at 10 μM) | A7 radioligand binding, percentage inhibition (Human μ-opioid (MOP); [3H]-Naloxone): − (“−” indicates less than 50% inhibition at 10 μM) | A5 radioligand binding, percentage inhibition (Human melanocortin (MC5); [125I]-NDP-αMSH): − (“−” indicates less than 50% inhibition at 10 μM) | A4 radioligand binding, percentage inhibition (Human Melanocortin (MC4); [125I]-NDP-αMSH): − (“−” indicates less than 50% inhibition at 10 μM) | A6 radioligand binding, percentage inhibition ([1]; [125I]-S36057): − (“−” indicates less than 50% inhibition at 10 μM) | A3 radioligand binding, percentage inhibition (Human Melanocortin (MC3); [125I]-NDP-αMSH): − (“−” indicates less than 50% inhibition at 10 μM) | A9 radioligand binding, percentage inhibition ([2]; [125I]-PYY): − (“−” indicates less than 50% inhibition at 10 μM) | A11 radioligand binding, percentage inhibition (Mouse urotensin (mUR2); [125I]-Urotensin II): − (“−” indicates less than 50% inhibition at 10 μM) | A1 radioligand binding, percentage inhibition (Human δ-opioid (DOP); [3H]-Bremazocine): − (“−” indicates less than 50% inhibition at 10 μM)

COCC1OC(OCc2ccc(Cl)cc2)C(NC(=O)CCCN)C(OCc2ccc3ccccc3c2)C1O (stereo not shown) [compound 212]
A8: inhibition of radioligand binding (Human neurokinin (NK1); [125I]-Substance P, filtration): + (“+” indicates greater than 50% inhibition at 10 μM) | A10: inhibition of radioligand binding (Human opioid (ORL1); [125I]-Nociceptin, FlashPlate): − (“−” indicates less than 50% inhibition at 10 μM) | A2: inhibition of radioligand binding (Human κ-Opioid (KOP); [3H]-Diprenorphine, filtration): − (“−” indicates less than 50% inhibition at 10 μM) | A7: inhibition of radioligand binding (Human μ-opioid (MOP); [3H]-Naloxone, FlashPlate): − (“−” indicates less than 50% inhibition at 10 μM) | A5: inhibition of radioligand binding (Human melanocortin (MC5); [125I]-NDP-αMSH, FlashPlate): + (“+” indicates greater than 50% inhibition at 10 μM) | A4: inhibition of radioligand binding (Human Melanocortin (MC4); [125I]-NDP-αMSH, FlashPlate): − (“−” indicates less than 50% inhibition at 10 μM) | A6: inhibition of radioligand binding ([1]; [125I]-S36057, FlashPlate): − (“−” indicates less than 50% inhibition at 10 μM) | A3: inhibition of radioligand binding (Human Melanocortin (MC3); [125I]-NDP-αMSH, FlashPlate): − (“−” indicates less than 50% inhibition at 10 μM) | A9: inhibition of radioligand binding ([2]; [125I]-PYY, FlashPlate): − (“−” indicates less than 50% inhibition at 10 μM) | A11: inhibition of radioligand binding (Mouse urotensin (mUR2); [125I]-Urotensin II, FlashPlate): − (“−” indicates less than 50% inhibition at 10 μM) | A1: inhibition of radioligand binding (Human δ-opioid (DOP); [3H]-Bremazocine, FlashPlate): − (“−” indicates less than 50% inhibition at 10 μM)

CSC1O[C@H](COCc2ccc(Cl)cc2)[C@@H](O)[C@@H](OCc2ccc(-c3ccccc3)cc2)[C@H]1NC(=O)CCN (stereo partly shown) [compound 290]
A8: inhibition of radioligand binding, human neurokinin (NK1) (Human neurokinin (NK1); [125I]-Substance P): + (“+” indicates greater than 50% inhibition at 10 μM) | A10: inhibition of radioligand binding, human opioid (ORL1) (Human opioid (ORL1); [125I]-Nociceptin): − (“−” indicates less than 50% inhibition at 10 μM) | A2: inhibition of radioligand binding, human κ-opioid (KOP) (Human κ-Opioid (KOP); [3H]-Diprenorphine): − (“−” indicates less than 50% inhibition at 10 μM) | A7: inhibition of radioligand binding, human μ-opioid (MOP) (Human μ-opioid (MOP); [3H]-Naloxone): − (“−” indicates less than 50% inhibition at 10 μM) | A5: inhibition of radioligand binding, human melanocortin (MC5) (Human melanocortin (MC5); [125I]-NDP-αMSH): + (“+” indicates greater than 50% inhibition at 10 μM) | A4: inhibition of radioligand binding, human melanocortin (MC4) (Human Melanocortin (MC4); [125I]-NDP-αMSH): − (“−” indicates less than 50% inhibition at 10 μM) | A6: inhibition of radioligand binding, human melanin-concentrating hormone (MCH1) ([1]; [125I]-S36057): − (“−” indicates less than 50% inhibition at 10 μM) | A3: inhibition of radioligand binding, human melanocortin (MC3) (Human Melanocortin (MC3); [125I]-NDP-αMSH): − (“−” indicates less than 50% inhibition at 10 μM) | A9: inhibition of radioligand binding, human neuropeptide Y (NPY-Y1) ([2]; [125I]-PYY): − (“−” indicates less than 50% inhibition at 10 μM) | A11: inhibition of radioligand binding, mouse urotensin (mUR2) (Mouse urotensin (mUR2); [125I]-Urotensin II): − (“−” indicates less than 50% inhibition at 10 μM) | A1: inhibition of radioligand binding, human δ-opioid (DOP) (Human δ-opioid (DOP); [3H]-Bremazocine): − (“−” indicates less than 50% inhibition at 10 μM)

CO[C@H]1[C@H](O)[C@@H](COCc2ccc(-c3ccccc3)cc2)OC(OCc2ccccc2)[C@@H]1NC(=O)CCNC(=N)N (stereo partly shown) [compound 83]
A8 radioligand binding inhibition (Human neurokinin (NK1); human neurokinin NK1 membranes): + (“+” indicates greater than 50% inhibition at 10 μM) | A10 radioligand binding inhibition (Human opioid (ORL1); human ORL1 membranes): − (“−” indicates less than 50% inhibition at 10 μM) | A2 radioligand binding inhibition (Human κ-Opioid (KOP); human κ-opioid (KOP) membranes): − (“−” indicates less than 50% inhibition at 10 μM) | A7 radioligand binding inhibition (Human μ-opioid (MOP); human μ-opioid (MOP) membranes): + (“+” indicates greater than 50% inhibition at 10 μM) | A5 radioligand binding inhibition (Human melanocortin (MC5); human melanocortin MC5 membranes): + (“+” indicates greater than 50% inhibition at 10 μM) | A4 radioligand binding inhibition (Human Melanocortin (MC4); human melanocortin MC4 membranes): − (“−” indicates less than 50% inhibition at 10 μM) | A6 radioligand binding inhibition ([1]; human MCH1 membranes): − (“−” indicates less than 50% inhibition at 10 μM) | A3 radioligand binding inhibition (Human Melanocortin (MC3); human melanocortin MC3 membranes): − (“−” indicates less than 50% inhibition at 10 μM) | A9 radioligand binding inhibition ([2]; human NPY-Y1 membranes): − (“−” indicates less than 50% inhibition at 10 μM) | A11 radioligand binding inhibition (Mouse urotensin (mUR2); mouse urotensin mUR2 membranes): − (“−” indicates less than 50% inhibition at 10 μM) | A1 radioligand binding inhibition (Human δ-opioid (DOP); human δ-opioid (DOP) membranes): − (“−” indicates less than 50% inhibition at 10 μM)

NCCCC(=O)NC1C(OCc2ccc3ccccc3c2)OC(COCc2ccccc2)C(O)C1OCc1ccc2ccccc2c1 (stereo not shown) [compound 462]
A8: inhibition of radioligand binding (Human neurokinin (NK1); [125I]-Substance P, human NK1 membranes): + (“+” indicates greater than 50% inhibition at 10 μM) | A10: inhibition of radioligand binding (Human opioid (ORL1); [125I]-Nociceptin, human ORL1 membranes, 10 µM): + (“+” indicates greater than 50% inhibition at 10 μM) | A2: inhibition of radioligand binding (Human κ-Opioid (KOP); [3H]-Diprenorphine, human KOP membranes): − (“−” indicates less than 50% inhibition at 10 μM) | A7: inhibition of radioligand binding (Human μ-opioid (MOP); [3H]-Naloxone, human MOP membranes): − (“−” indicates less than 50% inhibition at 10 μM) | A5: inhibition of radioligand binding (Human melanocortin (MC5); [125I]-NDP-αMSH, human MC5 membranes): + (“+” indicates greater than 50% inhibition at 10 μM) | A4: inhibition of radioligand binding (Human Melanocortin (MC4); [125I]-NDP-αMSH, human MC4 membranes, 10 µM): − (“−” indicates less than 50% inhibition at 10 μM) | A6: inhibition of radioligand binding ([1]; [125I]-S36057, human MCH1 membranes): − (“−” indicates less than 50% inhibition at 10 μM) | A3: inhibition of radioligand binding (Human Melanocortin (MC3); [125I]-NDP-αMSH, human MC3 membranes, 10 µM): − (“−” indicates less than 50% inhibition at 10 μM) | A9: inhibition of radioligand binding ([2]; [125I]-PYY, human NPY-Y1 membranes): − (“−” indicates less than 50% inhibition at 10 μM) | A11: inhibition of radioligand binding (Mouse urotensin (mUR2); [125I]-Urotensin II, mouse mUR2 membranes): − (“−” indicates less than 50% inhibition at 10 μM) | A1: inhibition of radioligand binding (Human δ-opioid (DOP); [3H]-Bremazocine, human DOP membranes): − (“−” indicates less than 50% inhibition at 10 μM)
